The target of test [1] is lactate dehydrogenase B (LDHB) (Homo sapiens, UniProt P07195). Nature of the test: NADH fluorometric LDH assay. The class given is biochemical.
Test [2] deals with T1, lactate dehydrogenase A (LDHA) (Homo sapiens, UniProt P00338). In words: biochemical.
Test [3] deals with T1, lactate dehydrogenase A (LDHA). Nature of the test: NADH fluorometric LDH assay. The class given is biochemical.
The next test has as its target T2, CASTOR1 (Homo sapiens, UniProt Q8WTX7).
T2 sequence (Q8WTX7 1-329): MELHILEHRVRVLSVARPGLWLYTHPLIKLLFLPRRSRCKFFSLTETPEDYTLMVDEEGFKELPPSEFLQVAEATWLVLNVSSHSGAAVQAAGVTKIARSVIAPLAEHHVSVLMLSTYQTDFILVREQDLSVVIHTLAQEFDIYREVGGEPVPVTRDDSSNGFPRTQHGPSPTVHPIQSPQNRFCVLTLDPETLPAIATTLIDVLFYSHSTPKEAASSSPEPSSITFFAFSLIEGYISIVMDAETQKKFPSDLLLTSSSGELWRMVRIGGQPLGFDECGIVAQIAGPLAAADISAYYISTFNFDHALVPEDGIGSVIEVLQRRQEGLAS
Nature of the test: equilibrium dialysis MS. The format is binding. Conditions: 150 mM ammonium acetate pH 7.4, 4 C, metabolite pool. Background: Equilibrium dialysis compares concentrations on both sides of a semipermeable membrane.

Chain of lactate dehydrogenase B (LDHB) (P07195 2-334): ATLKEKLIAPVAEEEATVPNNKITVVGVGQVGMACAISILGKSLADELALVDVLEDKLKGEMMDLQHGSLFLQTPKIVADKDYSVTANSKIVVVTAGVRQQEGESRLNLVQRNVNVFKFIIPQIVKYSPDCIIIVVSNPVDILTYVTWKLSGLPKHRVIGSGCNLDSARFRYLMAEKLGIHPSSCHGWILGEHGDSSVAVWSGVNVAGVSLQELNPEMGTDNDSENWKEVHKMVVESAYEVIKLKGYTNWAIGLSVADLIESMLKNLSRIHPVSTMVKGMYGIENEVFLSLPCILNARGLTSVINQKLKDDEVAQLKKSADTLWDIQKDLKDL

Take `CCCC(=O)SCCNC(=O)CCNC(=O)[C@H](O)C(C)(C)COP(=O)(O)OP(=O)(O)OC[C@H]1O[C@@H](n2cnc3c(N)ncnc32)[C@H](O)[C@@H]1OP(=O)(O)O` [C4:0-CoA]: in test [1], the IC50 is greater than 100 µM.
With `CCCCCCCCCCCCCCCC(=O)SCCNC(=O)CCNC(=O)[C@H](O)C(C)(C)COP(=O)(O)OP(=O)(O)OC[C@H]1O[C@@H](n2cnc3c(N)ncnc32)[C@H](O)[C@@H]1OP(=O)(O)O` [C16:0-CoA], the IC50 was 1.54 µM in test [2], greater than 100 µM in test [1] and roughly 1 µM in test [3].
For the molecule `CCCCCCCCCCCC(=O)SCCNC(=O)CCNC(=O)[C@H](O)C(C)(C)COP(=O)(O)OP(=O)(O)OC[C@H]1O[C@@H](n2cnc3c(N)ncnc32)[C@H](O)[C@@H]1OP(=O)(O)O` [C12:0-CoA], the IC50 in test [1] and in test [3] was greater than 100 µM throughout.
For the molecule `Nc1ncnc2c1ncn2[C@@H]1O[C@H](COP(=O)(O)O)[C@@H](O)[C@H]1O` [AMP], the figures for the IC50 in test [1] and in test [3] were 51400 µM and 24400 µM, respectively.
As to `N=C(N)NCCC[C@H](N)C(=O)O` [arginine], the “equilibrium dialysis MS (MIDAS)” value on CASTOR1 is listed as “CASTOR1 enriched arginine (Fig. 1C)”.
On to `CCCCCCCCCCCCCCCCCCCC(=O)SCCNC(=O)CCNC(=O)[C@H](O)C(C)(C)COP(=O)(O)OP(=O)(O)OC[C@H]1O[C@@H](n2cnc3c(N)ncnc32)[C@H](O)[C@@H]1OP(=O)(O)O` [C20:0-CoA], for which the IC50 was 1.01 µM in test [2] and greater than 100 µM in test [1].
On to `CCCCCCCC(=O)SCCNC(=O)CCNC(=O)[C@H](O)C(C)(C)COP(=O)(O)OP(=O)(O)OC[C@H]1O[C@@H](n2cnc3c(N)ncnc32)[C@H](O)[C@@H]1OP(=O)(O)O` [C8:0-CoA], for which the IC50 in test [1] was greater than 100 µM.
For the molecule `CCCCCCCC/C=C\CCCCCCCC(=O)SCCNC(=O)CCNC(=O)[C@H](O)C(C)(C)COP(=O)(O)OP(=O)(O)OC[C@H]1O[C@@H](n2cnc3c(N)ncnc32)[C@H](O)[C@@H]1OP(=O)(O)O` [C18:1-CoA], the IC50 was 0.8 µM in test [2], greater than 100 µM in test [1] and roughly 1 µM in test [3].
Consider `Nc1ncnc2c1ncn2[C@@H]1O[C@H](COP(=O)(O)OP(=O)(O)O)[C@@H](O)[C@H]1O` [ADP], for which the values for the IC50 in test [1] and in test [3] were 14900 µM and 5060 µM, respectively.
In test [1], `CC(=O)SCCNC(=O)CCNC(=O)[C@H](O)C(C)(C)COP(=O)(O)OP(=O)(O)OC[C@H]1O[C@@H](n2cnc3c(N)ncnc32)[C@H](O)[C@@H]1OP(=O)(O)O` [C2:0-CoA] came in with an IC50 greater than 100 µM.

One may read the IC50 as the point on the concentration scale where inhibition reaches its midpoint. Read a low IC50 as inhibition by little substance.

For the origin of these results see article doi:10.1101/2021.08.28.458030v1 (biorxiv, 2021).
